Measured values from patent US10590128B2, “6,7,8,9-tetrahydro-5H-pyrido[2,3-d]azepine dopamine D3 ligands” (Pfizer Inc., priority 2016, dated 2020).
pKi: −log10 of the molar value.

Tests used:
[1] = target: human dopamine D3 receptor (hD3R) (Homo sapiens, UniProt P35462); assay: Human D3 receptor binding assay ([^3H]-7-OH-DPAT); conditions: CHO cells expressing hD3R, geometric mean of 2-5 determinations unless marked b (single determination), read-out: hD3 in CHO cells Ki
Description: (§1) Human D2 Receptor and Human D3 Receptor Binding Assays:
(§2) These determined ligand and tissue concentrations were utilized in time course studies to determine linearity and equilibrium conditions for binding. […] The hD2R assay buffer contains 50 mM Tris (pH 7.4 @ 37° C.), 100 mM NaCl and 1 mM MgCl2. The hD3R assay buffer consists of 50 mM Tris (pH 7.4 at 37° C.), 120 mM NaCl, 5 mM MgCl2, 5 mM KCl and 2 mM CaCl2. Competitive binding experiments were initiated by the addition of 200 μL of the respective cell homogenate to 96-well plates containing […] test drugs (10 concentrations using ½ log dilutions) and 50 μL of ^3H-radioligand for a final volume of 250 μL. Non-specific binding was determined by radioligand binding in the presence of a saturating concentration of Haldol (10 μM). After the 20 minute incubation at 37° C., assay samples were rapidly filtered through Unifilter-96 GF/B PEI-coated filter plates and rinsed with ice-cold 50 mM Tris buffer (pH 7.4 at 4° C.). […] The IC50 value (concentration at which 50% inhibition of specific binding occurs) was calculated by linear regression of the concentration-response data in ActivityBase. Ki values were then calculated according to the Cheng-Prusoff equation:
(§3) [formula] where [L]=concentration of free radioligand and Kd=dissociation constant of radioligand for D3 receptor or D2 receptor.

[2] = target: human dopamine D2 receptor (hD2R) (Homo sapiens, UniProt P14416); assay: Human D2 receptor binding assay ([^3H]-Spiperone); conditions: CHO cells expressing hD2R, geometric mean of 2-5 determinations unless marked b (single determination)
Chain of human dopamine D2 receptor (hD2R) (P14416 whole entry): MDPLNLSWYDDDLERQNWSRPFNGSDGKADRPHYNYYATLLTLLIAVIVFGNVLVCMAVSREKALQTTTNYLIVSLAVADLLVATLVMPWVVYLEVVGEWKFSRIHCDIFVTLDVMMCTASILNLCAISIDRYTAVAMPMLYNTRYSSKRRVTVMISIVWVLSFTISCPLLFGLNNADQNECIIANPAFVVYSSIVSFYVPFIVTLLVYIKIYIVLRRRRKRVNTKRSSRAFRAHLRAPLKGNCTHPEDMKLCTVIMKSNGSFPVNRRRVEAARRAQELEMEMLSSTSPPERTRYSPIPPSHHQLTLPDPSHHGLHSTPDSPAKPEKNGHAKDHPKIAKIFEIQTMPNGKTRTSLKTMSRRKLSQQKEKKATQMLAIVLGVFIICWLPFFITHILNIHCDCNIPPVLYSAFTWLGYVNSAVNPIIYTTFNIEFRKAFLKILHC
Description: as §1, §2, §3

Chain of human dopamine D3 receptor (hD3R) (P35462 whole entry): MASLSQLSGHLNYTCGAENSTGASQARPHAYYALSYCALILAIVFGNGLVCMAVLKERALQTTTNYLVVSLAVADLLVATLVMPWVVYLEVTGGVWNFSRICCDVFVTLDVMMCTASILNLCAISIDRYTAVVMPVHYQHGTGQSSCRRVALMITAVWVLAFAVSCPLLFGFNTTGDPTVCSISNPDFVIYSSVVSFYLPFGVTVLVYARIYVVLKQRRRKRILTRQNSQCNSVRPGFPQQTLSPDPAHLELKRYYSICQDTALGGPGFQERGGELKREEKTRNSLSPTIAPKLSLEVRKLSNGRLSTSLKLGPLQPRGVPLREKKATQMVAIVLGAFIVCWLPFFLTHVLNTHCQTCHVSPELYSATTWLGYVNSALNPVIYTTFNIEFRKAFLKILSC

Structure (SMILES) | pKi [1] | pKi [2]
CCN1CCc2nc(OC)c(NS(=O)(=O)c3ccc(C)cc3)cc2C(C)C1 (stereo not shown) [Example 13, N-(7-ethyl-2-methoxy-5-methyl-6,7,8,9-tetrahydro-5H-pyrido[2,3-d]azepin-3-yl)-4-methylbenzenesulfonamide] | 7.97 | 6.03
CCOc1ccc(S(=O)(=O)Nc2cc3c(nc2OC(C)C)CCN(CC)CC3)cc1 [Example 14, 4-Ethoxy-N-[7-ethyl-2-(propan-2-yloxy)-6,7,8,9-tetrahydro-5H-pyrido[2,3-d]azepin-3-yl]benzenesulfonamide] | 8.42 | 7.44
COc1nc2c(cc1NS(=O)(=O)c1ccc(C3CCCC3)nc1)CCN(C)CC2 [Example 16, 6-cyclopentyl-N-(2-methoxy-7-methyl-6,7,8,9-tetrahydro-5H-pyrido[2,3-d]azepin-3-yl)pyridine-3-sulfonamide] | 8.62 | 6.91
COc1nc2c(cc1NS(=O)(=O)c1ccc(OC3CCC3)nc1)CCN(C)CC2 [Example 17, 6-(cyclobutyloxy)-N-(2-methoxy-7-methyl-6,7,8,9-tetrahydro-5H-pyrido[2,3-d]azepin-3-yl)pyridine-3-sulfonamide] | 8.71 | 7.04
CCN1CCc2cc(NS(=O)(=O)c3ccc([C@H]4C[C@H](OCCF)C4)cc3)c(OC)nc2CC1 [Example 20, N-(7-ethyl-2-methoxy-6,7,8,9-tetrahydro-5H-pyrido[2,3-d]azepin-3-yl)-4-[trans-3-(2-fluoroethoxy)cyclobutyl]benzenesulfonamide] | 8.76 | 6.94
CCN1CCc2cc(NS(=O)(=O)c3ccc([C@]4(O)C[C@@H](OC)C4)nc3)c(OC)nc2CC1 [Example 23, N-(7-ethyl-2-methoxy-6,7,8,9-tetrahydro-5H-pyrido[2,3-d]azepin-3-yl)-6-(cis-1-hydroxy-3-methoxycyclobutyl)pyridine-3-sulfonamide] | < 6.34 | < 5.34
COc1nc2c(cc1NS(=O)(=O)c1ccc([C@]3(F)C[C@@H](C)C3)nc1)CCN(C)CC2 [Example 25, 6-(cis-1-fluoro-3-methylcyclobutyl)-N-(2-methoxy-7-methyl-6,7,8,9-tetrahydro-5H-pyrido[2,3-d]azepin-3-yl)pyridine-3-sulfonamide] | 8.29 | 6.27
CCOc1ccc(S(=O)(=O)Nc2cc3c(nc2OC)CCN(CCOC)CC3)cc1 [Example 29, 4-ethoxy-N-[2-methoxy-7-(2-methoxyethyl)-6,7,8,9-tetrahydro-5H-pyrido[2,3-d]azepin-3-yl]benzenesulfonamide] | 7.95 | 5.97
CCN1CCc2cc(NS(=O)(=O)c3ccc(C4CC4)cc3)c(OC)nc2CC1 [Example 30, 4-cyclopropyl-N-(7-ethyl-2-methoxy-6,7,8,9-tetrahydro-5H-pyrido[2,3-d]azepin-3-yl)benzenesulfonamide] | 9.05 | 7.26
COc1nc2c(cc1NS(=O)(=O)c1ccc(C(C)OC)cc1)CCN(C)CC2 (stereo not shown) [Example 32, 4-(1-methoxyethyl)-N-(2-methoxy-7-methyl-6,7,8,9-tetrahydro-5H-pyrido[2,3-d]azepin-3-yl)benzenesulfonamide] | 8.98 | 6.69

More lines, now with the values ahead:

pKi [1] | pKi [2] | Structure (SMILES)
6.55 | 6.59 | CCCN1CCc2cc(NS(=O)(=O)c3ccc(C(C)C)cc3)c(OC(F)F)nc2CC1 [Example 12, N-[2-(Difluoromethoxy)-7-propyl-6,7,8,9-tetrahydro-5H-pyrido[2,3-d]azepin-3-yl]-4-(propan-2-yl)benzenesulfonamide]
9.15 | 7.88 | COc1nc2c(cc1NS(=O)(=O)c1ccc(OC3CCCC3)nc1)CCN(C)CC2 [Example 15, 6-(cyclopentyloxy)-N-(2-methoxy-7-methyl-6,7,8,9-tetrahydro-5H-pyrido[2,3-d]azepin-3-yl)pyridine-3-sulfonamide]
8.45 | 6.85 | COc1nc2c(cc1NS(=O)(=O)c1cnc(OC3CCCC3)nc1)CCN(C)CC2 [Example 18, 2-(cyclopentyloxy)-N-(2-methoxy-7-methyl-6,7,8,9-tetrahydro-5H-pyrido[2,3-d]azepin-3-yl)pyrimidine-5-sulfonamide]
8.56 | 7.04 | COc1nc2c(cc1NS(=O)(=O)c1ccc(C3(F)CCCCC3)nc1)CCN(C)CC2 [Example 19, 6-(1-fluorocyclohexyl)-N-(2-methoxy-7-methyl-6,7,8,9-tetrahydro-5H-pyrido[2,3-d]azepin-3-yl)pyridine-3-sulfonamide]
9.01 | 7.59 | CCO[C@H]1C[C@@H](c2ccc(S(=O)(=O)Nc3cc4c(nc3OC)CCN(C)CC4)cc2)C1 [Example 21, 4-(cis-3-ethoxycyclobutyl)-N-(2-methoxy-7-methyl-6,7,8,9-tetrahydro-5H-pyrido[2,3-d]azepin-3-yl)benzenesulfonamide]
8.58 | 7.52 | CCO[C@H]1C[C@H](c2ccc(S(=O)(=O)Nc3cc4c(nc3OC)CCN(C)CC4)cc2)C1 [Example 22, 4-(trans-3-ethoxycyclobutyl)-N-(2-methoxy-7-methyl-6,7,8,9-tetrahydro-5H-pyrido[2,3-d]azepin-3-yl)benzenesulfonamide]
8.38 | 6.63 | COc1nc2c(cc1NS(=O)(=O)c1cnc(C3CCC3)c(F)c1)CCN(C)CC2 [Example 24, 6-cyclobutyl-5-fluoro-N-(2-methoxy-7-methyl-6,7,8,9-tetrahydro-5H-pyrido[2,3-d]azepin-3-yl)pyridine-3-sulfonamide]
8.61 | 6.28 | CCCN1CCc2cc(NS(=O)(=O)c3ccc(C)cc3)c(OC)nc2CC1 [Example 26, N-(2-methoxy-7-propyl-6,7,8,9-tetrahydro-5H-pyrido[2,3-d]azepin-3-yl)-4-methylbenzenesulfonamide]
8.49 | 6.40 | COc1nc2c(cc1NS(=O)(=O)c1ccc(Cl)cc1)CCN(C)CC2 [Example 27, 4-chloro-N-(2-methoxy-7-methyl-6,7,8,9-tetrahydro-5H-pyrido[2,3-d]azepin-3-yl)benzenesulfonamide]
8.63 | 6.91 | CCOc1ccc(S(=O)(=O)Nc2cc3c(nc2OC)CCN(C)CC3)cc1 [Example 28, 4-ethoxy-N-(2-methoxy-7-methyl-6,7,8,9-tetrahydro-5H-pyrido[2,3-d]azepin-3-yl)benzenesulfonamide]
8.91 | 6.25 | COc1nc2c(cc1NS(=O)(=O)c1ccc3c(c1)CCCO3)CCN(C)CC2 [Example 31, N-(2-methoxy-7-methyl-6,7,8,9-tetrahydro-5H-pyrido[2,3-d]azepin-3-yl)-3,4-dihydro-2H-chromene-6-sulfonamide]
9.19 | 7.58 | COc1nc2c(cc1NS(=O)(=O)c1ccc3c(c1)CC(C)(C)O3)CCN(C)CC2 [Example 34, N-(2-methoxy-7-methyl-6,7,8,9-tetrahydro-5H-pyrido[2,3-d]azepin-3-yl)-2,2-dimethyl-2,3-dihydro-1-benzofuran-5-sulfonamide]
8.43 | 6.00 | CCN1CCc2cc(NS(=O)(=O)c3ccc(C)c(F)c3)c(OC)nc2CC1 [Example 35, N-(7-ethyl-2-methoxy-6,7,8,9-tetrahydro-5H-pyrido[2,3-d]azepin-3-yl)-3-fluoro-4-methylbenzenesulfonamide]
